The values that follow come from patent US9029386B2, “Pyridine derivatives useful as kinase inhibitors” (YM Biosciences Australia Pty Ltd, priority 2006, dated 2015).

The target in assay [1] is T1, kinase domain of human CSF1-R (Homo sapiens, UniProt P07333).
T1 construct: from codon I553 to Q961; made in house; host or cells: Sf9 insect cells (baculovirus)
T1 sequence (P07333 553-961): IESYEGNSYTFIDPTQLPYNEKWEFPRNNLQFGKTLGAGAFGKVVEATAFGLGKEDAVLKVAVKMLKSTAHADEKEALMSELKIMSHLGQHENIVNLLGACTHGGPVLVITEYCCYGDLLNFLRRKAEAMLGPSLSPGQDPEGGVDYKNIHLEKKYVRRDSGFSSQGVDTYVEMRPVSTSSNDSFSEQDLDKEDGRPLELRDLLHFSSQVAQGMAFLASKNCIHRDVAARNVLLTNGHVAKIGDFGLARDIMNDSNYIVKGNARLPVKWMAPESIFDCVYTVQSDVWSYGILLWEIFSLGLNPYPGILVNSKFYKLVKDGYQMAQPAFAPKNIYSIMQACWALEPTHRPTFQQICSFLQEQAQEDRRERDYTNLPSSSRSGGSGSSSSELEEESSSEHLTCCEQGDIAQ
In words: Alphascreen protein tyrosine kinase assay, CSF-1R. The assay is classed as biochemical. As to the method: (§1) For screening purposes, compounds were diluted in 96 well plates at a concentration of 20 μM. Plates were warmed at 37° C. for 30 minutes before assay.
The kinase domain of human CSF1-R from codon I553 to Q961 was cloned into the pDEST-20 expression vector (Invitrogen). The CSF1-R plasmid was then transformed into competent DH10Bac cells (Gibco), and the recombinant baculovirus produced prepared for transfection into Sf9 insect cells.
Baculovirus preparations from each of construct were infected into five liters of SF9 cells (Invitrogen) grown in SF-900 medium (Invitrogen) to a cell density of approximately 1−2×10^6 cells/ml. […] Cells were harvested and lysed. Tyrosine kinase domains were purified by affinity chromatography on a glutathione-agarose column (Scientifix Pty. Ltd. catalog #: GSH-200).
Kinase assays were performed in 384 well Optiplates (Packard) using an Alphascreen Protein Tyrosine Kinase kit. […] Alphascreen phosphotyrosine acceptor beads followed by streptavidin donor beads were added under subdued light. The Alphascreen plates were read on a Packard Fusion Alpha. Inhibitors were added to the assays thirty minutes prior to the addition of ATP. Inhibitors were added in aqueous DMSO, with DMSO concentrations never exceeding 1%.
(In general: In Alpha technology, singlet oxygen from a donor bead excites a nearby acceptor bead.)

A further assay concerns the target T2, KDR protein kinase (Homo sapiens, UniProt P35968).
T2 construct: purchased Millipore 14-630M
As to the kind of experiment: Alphascreen protein tyrosine kinase assay, KDR. The class given is biochemical. The protocol:
as §1
FLT-3 and PDGFR β tyrosine kinase enzymes were purchased from Upstate Cell Signalling Solutions, CA, USA (flt-3 catalog #: 14-500 and PDGFR β catalog #: 14-463). KDR protein kinase enzyme was purchased from Millipore (catalogue #14-630M).
Kinase assays were performed in 384 well Optiplates (Packard) using an Alphascreen Protein Tyrosine Kinase kit. […] The biotinylated peptides Biotin-[…]-NH2 for c-KIT and PDGFRβ and Biotin-[…]-NH2 for CSF1-R and FLT-3 (final concentration 0.1-3 μM) were used as substrates. Alphascreen phosphotyrosine acceptor beads followed by streptavidin donor beads were added under subdued light. The Alphascreen plates were read on a Packard Fusion Alpha. Inhibitors were added to the assays thirty minutes prior to the addition of ATP. Inhibitors were added in aqueous DMSO, with DMSO concentrations never exceeding 1%.

The target in the next assay is T3, Flt4(h) (Homo sapiens, UniProt P35916).
T3 construct: purchased Upstate Biotechnology (Dundee, UK), KinaseProfiler service
As to the kind of experiment: KinaseProfiler assay (Upstate), Flt4. The assay is classed as biochemical. As to the method:
(§2) Further enzyme assays were conducted at Upstate Biotechnology (Dundee, UK) in the KinaseProfiler™ Assay system.
(§3) The general protocol is as follows. All kinases are pre-diluted to a 10× working concentration prior to addition into the assay. The composition of the dilution buffer for the kinases is 20 mM MOPS pH 7.0, 1 mM EDTA, 0.1% β-mercaptoethanol, 0.01% Brij-35, 5% glycerol, 1 mg/ml BSA. All substrates are dissolved and diluted to working stocks in de-ionised water.

The next assay addresses T4, Lck(h) (Homo sapiens, UniProt P06239).
T4 construct: purchased Upstate Biotechnology (Dundee, UK), KinaseProfiler service
As to the kind of experiment: KinaseProfiler assay (Upstate), Lck. The assay is classed as biochemical. As to the method:
as §2, §3
In a final reaction volume of 25 μl, Lck (h) (5-10 mU) is incubated with 50 mM Tris pH 7.5, 0.1 mM EGTA, 0.1 mM Na3VO4, 250 μM […] (Cdc2 peptide), 10 mM MgAcetate and [γ-33P-ATP] (specific activity approx. 500 cpm/pmol, concentration as required). The reaction is initiated by the addition of the MgATP mix. After incubation for 40 minutes at room temperature, the reaction is stopped by the addition of 5 μl of a 3% phosphoric acid solution. 10 μl of the reaction is then spotted onto a P30 filtermat and washed three times for 5 minutes in 75 mM phosphoric acid and once in methanol prior to drying and scintillation counting.

In the next assay the target is T5, Ret(h) (Homo sapiens, UniProt P07949).
T5 construct: purchased Upstate Biotechnology (Dundee, UK), KinaseProfiler service
As to the kind of experiment: KinaseProfiler assay (Upstate), Ret. The class given is biochemical. The protocol:
as §2, §3
In a final reaction volume of 25 μl, Ret (h) (5-10 mU) is incubated with 8 mM MOPS pH 7.0, 0.2 mM EDTA, 250 μM […], 10 mM MgAcetate and [γ-33P-ATP] (specific activity approx. 500 cpm/pmol, concentration as required). The reaction is initiated by the addition of the MgATP mix. After incubation for 40 minutes at room temperature, the reaction is stopped by the addition of 5 μl of a 3% phosphoric acid solution. 10 μl of the reaction is then spotted onto a P30 filtermat and washed three times for 5 minutes in 75 mM phosphoric acid and once in methanol prior to drying and scintillation counting.

A further assay has as its system mNFS-60. In words: Cellular assay (Alamar Blue), mNFS-60 with human M-CSF. The class given is cell-based. Conditions: human M-CSF at 20 ng/ml, 72 hr. The protocol:
Cells for the assays were prepared by harvesting cells from culture, and then diluting them in the appropriate growth medium to between 40,000 cell/mL and 600,000 cell/mL, depending on the cell line.
The compounds to be tested were added (104, 10× final concentration) to a flat bottomed 96-well plate. The cellular suspension (80 μL per well) was added, and one hour later the growth factor was added (human M-CSF at 20 ng/ml for mNFS-60, mouse IL-3 at 5 ng/ml for Baf3-WT). The plate was then incubated for 72 hr at 37° C., 5% CO2. Alamar Blue (10^4 per well) was added and the plates returned to the incubator for a further 4-8 hours.
The plates were then read using a fluorescence plate reader at excitation 544 nm and emission 590 nm.

SMILES strings stand for the structures.

T2 sequence (P35968 20-1356): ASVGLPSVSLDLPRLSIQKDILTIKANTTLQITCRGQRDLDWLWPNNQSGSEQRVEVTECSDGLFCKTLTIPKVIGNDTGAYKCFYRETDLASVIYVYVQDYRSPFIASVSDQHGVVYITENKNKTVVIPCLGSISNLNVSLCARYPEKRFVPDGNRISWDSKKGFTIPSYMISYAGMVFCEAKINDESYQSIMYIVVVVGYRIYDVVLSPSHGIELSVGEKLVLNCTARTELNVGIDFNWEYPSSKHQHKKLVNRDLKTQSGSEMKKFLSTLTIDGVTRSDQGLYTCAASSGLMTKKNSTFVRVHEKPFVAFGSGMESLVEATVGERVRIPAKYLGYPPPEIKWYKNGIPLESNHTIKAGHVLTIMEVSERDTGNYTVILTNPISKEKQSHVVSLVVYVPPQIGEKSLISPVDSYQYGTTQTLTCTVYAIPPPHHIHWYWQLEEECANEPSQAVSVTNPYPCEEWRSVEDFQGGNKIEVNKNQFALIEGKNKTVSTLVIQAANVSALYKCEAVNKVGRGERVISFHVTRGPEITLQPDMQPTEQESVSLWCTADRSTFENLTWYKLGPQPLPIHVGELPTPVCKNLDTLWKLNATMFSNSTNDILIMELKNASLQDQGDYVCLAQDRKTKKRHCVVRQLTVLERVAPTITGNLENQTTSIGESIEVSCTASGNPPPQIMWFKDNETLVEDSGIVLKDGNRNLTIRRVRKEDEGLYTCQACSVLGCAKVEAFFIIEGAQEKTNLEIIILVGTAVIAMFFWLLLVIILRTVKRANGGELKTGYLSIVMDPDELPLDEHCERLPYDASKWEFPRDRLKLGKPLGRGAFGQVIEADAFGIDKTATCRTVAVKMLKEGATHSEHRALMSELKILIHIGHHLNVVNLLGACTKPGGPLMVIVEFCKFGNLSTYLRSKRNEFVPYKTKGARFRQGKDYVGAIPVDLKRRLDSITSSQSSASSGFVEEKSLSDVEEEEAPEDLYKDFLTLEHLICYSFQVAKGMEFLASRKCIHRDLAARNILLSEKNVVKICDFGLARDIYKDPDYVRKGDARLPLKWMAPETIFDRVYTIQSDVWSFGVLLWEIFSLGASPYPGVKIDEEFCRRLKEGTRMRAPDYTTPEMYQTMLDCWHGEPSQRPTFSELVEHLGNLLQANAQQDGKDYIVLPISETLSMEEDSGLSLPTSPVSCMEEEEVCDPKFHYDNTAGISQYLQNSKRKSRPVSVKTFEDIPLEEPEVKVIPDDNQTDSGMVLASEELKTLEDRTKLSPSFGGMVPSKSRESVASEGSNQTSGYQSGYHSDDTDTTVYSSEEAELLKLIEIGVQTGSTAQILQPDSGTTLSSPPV
T5 sequence (P07949 29-1114): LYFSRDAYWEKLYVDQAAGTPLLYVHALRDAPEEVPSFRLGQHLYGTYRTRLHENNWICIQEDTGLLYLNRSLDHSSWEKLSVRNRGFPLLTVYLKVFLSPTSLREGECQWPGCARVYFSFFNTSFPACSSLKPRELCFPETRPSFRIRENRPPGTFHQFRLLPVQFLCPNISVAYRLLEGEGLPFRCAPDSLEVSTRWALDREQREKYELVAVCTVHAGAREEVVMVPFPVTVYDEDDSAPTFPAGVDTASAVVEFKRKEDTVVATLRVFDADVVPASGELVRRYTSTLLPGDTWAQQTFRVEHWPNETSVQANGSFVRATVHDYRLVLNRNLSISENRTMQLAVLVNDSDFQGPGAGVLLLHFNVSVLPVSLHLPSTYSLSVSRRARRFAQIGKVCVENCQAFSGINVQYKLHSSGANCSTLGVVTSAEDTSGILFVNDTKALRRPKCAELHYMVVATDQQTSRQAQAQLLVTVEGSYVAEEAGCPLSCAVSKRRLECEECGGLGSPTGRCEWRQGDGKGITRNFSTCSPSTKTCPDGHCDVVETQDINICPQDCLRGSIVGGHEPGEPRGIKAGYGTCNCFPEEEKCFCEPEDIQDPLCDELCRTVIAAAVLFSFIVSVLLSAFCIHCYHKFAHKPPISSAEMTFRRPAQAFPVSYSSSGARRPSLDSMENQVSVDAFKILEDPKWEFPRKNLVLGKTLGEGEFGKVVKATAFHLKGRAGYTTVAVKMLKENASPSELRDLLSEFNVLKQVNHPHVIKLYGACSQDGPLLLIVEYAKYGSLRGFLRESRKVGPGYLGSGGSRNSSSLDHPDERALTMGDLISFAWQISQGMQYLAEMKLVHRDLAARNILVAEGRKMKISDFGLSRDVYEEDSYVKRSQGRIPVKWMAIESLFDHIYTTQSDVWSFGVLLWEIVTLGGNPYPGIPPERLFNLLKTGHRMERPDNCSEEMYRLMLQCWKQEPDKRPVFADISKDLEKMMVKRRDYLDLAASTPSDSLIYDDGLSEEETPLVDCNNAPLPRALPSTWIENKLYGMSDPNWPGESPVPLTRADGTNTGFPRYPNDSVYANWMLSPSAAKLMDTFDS
T4 sequence (P06239 whole entry): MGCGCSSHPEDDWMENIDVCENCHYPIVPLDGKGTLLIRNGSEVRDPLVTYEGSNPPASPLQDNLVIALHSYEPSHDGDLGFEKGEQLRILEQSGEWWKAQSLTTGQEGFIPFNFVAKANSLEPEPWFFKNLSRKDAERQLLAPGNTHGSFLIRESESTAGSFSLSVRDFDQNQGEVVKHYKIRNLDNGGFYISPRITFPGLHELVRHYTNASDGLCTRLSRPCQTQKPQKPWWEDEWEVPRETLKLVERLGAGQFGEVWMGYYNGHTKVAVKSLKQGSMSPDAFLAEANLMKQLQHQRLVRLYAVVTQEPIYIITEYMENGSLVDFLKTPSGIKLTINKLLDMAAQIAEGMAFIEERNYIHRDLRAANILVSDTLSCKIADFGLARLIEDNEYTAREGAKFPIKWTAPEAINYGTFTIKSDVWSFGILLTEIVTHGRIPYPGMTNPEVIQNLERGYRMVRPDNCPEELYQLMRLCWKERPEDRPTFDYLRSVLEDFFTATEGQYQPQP
T3 sequence (P35916 25-1363): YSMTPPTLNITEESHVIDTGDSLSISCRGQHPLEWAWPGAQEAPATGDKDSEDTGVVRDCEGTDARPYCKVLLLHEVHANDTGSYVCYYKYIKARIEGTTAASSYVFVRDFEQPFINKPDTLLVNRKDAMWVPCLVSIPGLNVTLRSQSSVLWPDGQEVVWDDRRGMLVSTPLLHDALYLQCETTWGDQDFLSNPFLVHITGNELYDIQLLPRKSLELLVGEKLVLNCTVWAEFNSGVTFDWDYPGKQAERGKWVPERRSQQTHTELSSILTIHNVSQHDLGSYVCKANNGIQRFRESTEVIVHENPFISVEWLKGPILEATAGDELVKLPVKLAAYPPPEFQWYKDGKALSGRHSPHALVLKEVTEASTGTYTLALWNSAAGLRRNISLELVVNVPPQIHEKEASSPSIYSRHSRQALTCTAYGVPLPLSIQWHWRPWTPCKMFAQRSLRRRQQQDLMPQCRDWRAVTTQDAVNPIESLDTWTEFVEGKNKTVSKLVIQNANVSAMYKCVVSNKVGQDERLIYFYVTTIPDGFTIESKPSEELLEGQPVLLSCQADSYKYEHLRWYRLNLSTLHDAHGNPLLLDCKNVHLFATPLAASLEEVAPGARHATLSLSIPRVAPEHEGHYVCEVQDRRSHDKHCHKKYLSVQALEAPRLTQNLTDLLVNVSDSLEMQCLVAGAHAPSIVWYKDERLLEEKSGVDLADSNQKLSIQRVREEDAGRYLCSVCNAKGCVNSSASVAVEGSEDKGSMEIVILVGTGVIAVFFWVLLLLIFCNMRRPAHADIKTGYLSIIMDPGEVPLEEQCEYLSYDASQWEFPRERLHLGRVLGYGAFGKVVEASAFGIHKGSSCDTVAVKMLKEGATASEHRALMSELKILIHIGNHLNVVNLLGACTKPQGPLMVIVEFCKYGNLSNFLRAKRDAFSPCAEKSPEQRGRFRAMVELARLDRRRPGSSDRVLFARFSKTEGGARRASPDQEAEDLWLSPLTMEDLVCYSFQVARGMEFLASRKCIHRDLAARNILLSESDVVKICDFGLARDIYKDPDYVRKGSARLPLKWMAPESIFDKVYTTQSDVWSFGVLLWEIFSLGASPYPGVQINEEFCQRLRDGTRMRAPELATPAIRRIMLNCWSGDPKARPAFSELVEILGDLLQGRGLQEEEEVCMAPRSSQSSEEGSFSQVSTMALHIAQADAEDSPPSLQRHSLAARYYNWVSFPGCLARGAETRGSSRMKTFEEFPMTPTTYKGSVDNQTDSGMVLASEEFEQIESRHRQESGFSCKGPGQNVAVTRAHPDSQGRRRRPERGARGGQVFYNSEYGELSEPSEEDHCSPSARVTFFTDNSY

The term IC50 denotes the midpoint of a concentration-inhibition curve. One may read the inhibition as the relative decrease from the control value, in per cent. Low values mean little suppression, high ones strong suppression. On to `C[C@H](Nc1cncc(-c2ccc(N3CCN(C)CC3)cc2)n1)c1cccc(NC(=O)c2cccc(C(F)(F)F)c2)c1` [Compound 148], for which the half-inhibitory concentration (IC50) in assay [1] was less than 100 nM; against KDR protein kinase it was less than 100 nM; in the assay on mNFS-60, less than 200 nM. Also, the inhibition at 0.1 µM at Flt4(h) came to 96%; at Lck(h) it was 95%; against Ret(h), 89%. In addition, the results for the inhibition at 1 µM against Flt4(h), on Lck(h) and against Ret(h) were 99%, 97% and 96%, respectively.

Consider `Cc1cccc(C(=O)Nc2cccc([C@H](C)Nc3cncc(C(N)=O)n3)c2)c1` [Compound 133, (S)-6-(1-(3-(3-methylbenzamido)phenyl)ethylamino)pyrazine-2-carboxamide], for which the IC50 in assay [1] was less than 100 nM; against KDR protein kinase, less than 100 nM; in the assay on mNFS-60, less than 200 nM. In addition, the results for the inhibition at 0.1 µM on Flt4(h), against Lck(h) and at Ret(h) were 95%, 0% and 1%, respectively. For the same compound, the inhibition at 1 µM came out at 100% against Flt4(h), 16% against Lck(h) and 36% at Ret(h).

On to `Cc1cccc(C(=O)Nc2cccc([C@H](C)Nc3cncc(-c4ccc(N5CCN(C)CC5)cc4)n3)c2)c1` [Compound 129], for which the half-inhibitory concentration (IC50) in assay [1] is less than 100 nM; against KDR protein kinase it was less than 100 nM; with mNFS-60 it was less than 200 nM. Moreover, the results for the inhibition at 0.1 µM at Flt4(h), against Lck(h) and at Ret(h) were 100%, 73% and 19%, respectively. The inhibition at 1 µM against Flt4(h) turned out to be 100%; on Lck(h), 96%; against Ret(h) it was 75%.

Turning to `C[C@H](Nc1cncc(-c2cccc(N3CCOCC3)c2)n1)c1cccc(NC(=O)c2cccc(C(F)(F)F)c2)c1` [Compound 149], the values for the half-maximal inhibitory concentration (IC50) (in assay [1]; against KDR protein kinase; with mNFS-60) were less than 100 nM, less than 100 nM and less than 1000 nM, respectively. The inhibition at 0.1 µM against Flt4(h) turned out to be 96%; at Lck(h), 68%; on Ret(h) it was 89%. For the same compound, the values for the inhibition at 1 µM on Flt4(h), on Lck(h) and on Ret(h) were 99%, 95% and 96%, respectively.

Consider `Cc1cccc(C(=O)Nc2cccc([C@H](C)Nc3cncc(-c4ccc(S(N)(=O)=O)cc4)n3)c2)c1` [Compound 77], for which the IC50 in assay [1] was less than 100 nM; on KDR protein kinase, less than 100 nM; in the assay on mNFS-60 it was less than 200 nM. Moreover, the inhibition at 0.1 µM at Flt4(h) worked out at 98%; against Lck(h), 45%; against Ret(h), 22%. In addition, the figures for the inhibition at 1 µM against Flt4(h), on Lck(h) and against Ret(h) were 97%, 84% and 67%, respectively.

In the case of `C[C@H](Nc1cncc(Cl)n1)c1cccc(NC(=O)c2cccc(C(F)(F)F)c2)c1` [Compound 114, (S)—N-(3-(1-(6-chloropyrazin-2-ylamino)ethyl)phenyl)-3-(trifluoromethyl)benzamide], the figures for the 50% inhibitory concentration (IC50) against KDR protein kinase and in the assay with mNFS-60 were less than 100 nM and less than 1000 nM, respectively. The values for the inhibition at 0.1 µM at Flt4(h), against Lck(h) and against Ret(h) were 92%, 53% and 66%, respectively. Further, the inhibition at 1 µM on Flt4(h) stood at 99%; at Lck(h), 90%; on Ret(h), 95%.

As to `Cc1cccc(C(=O)Nc2cccc([C@H](C)Nc3cncc(-c4cccc(N5CCOCC5)c4)n3)c2)c1` [Compound 147], the IC50 is less than 100 nM in assay [1], less than 100 nM at KDR protein kinase and less than 200 nM with mNFS-60. Besides, the inhibition at 0.1 µM against Flt4(h) was found to be 100%; on Lck(h), 50%; on Ret(h) it was 68%. In addition, the inhibition at 1 µM against Flt4(h) worked out at 99%; on Lck(h) it was 89%; on Ret(h), 92%.

For `Cc1cccc(C(=O)Nc2ccc(C)c([C@H](C)Nc3cncc(Cl)n3)c2)c1` [Compound 168], the inhibition at 0.1 µM came to 96% against Flt4(h), 85% on Lck(h) and 39% at Ret(h). Further, the inhibition at 1 µM amounted to 97% on Flt4(h), 98% on Lck(h) and 95% against Ret(h).

As to `Cc1cccc(C(=O)Nc2cccc([C@H](C)Nc3cncc(-n4ccnc4)n3)c2)c1` [Compound 143, (S)—N-(3-(1-(6-(1H-imidazol-1-yl)pyrazin-2-ylamino)ethyl)phenyl)-3-methylbenzamide], the IC50 in assay [1] is less than 100 nM; at KDR protein kinase, less than 100 nM; with mNFS-60, less than 200 nM. In addition, the inhibition at 0.1 µM against Flt4(h) was 95%; against Lck(h) it was 24%; at Ret(h) it was 8%. The results for the inhibition at 1 µM at Flt4(h), against Lck(h) and against Ret(h) were 99%, 77% and 58%, respectively.
